Test results reported in US11666583B2, “Methods of treating cortical dementia associated wandering” (WOOLSEY PHARMACEUTICALS, INC., priority 2020, dated 2023).
Counter-ions that a name gives are not always drawn.

Tests used:
[1] = tested on: patients with wandering due to VaD; conditions: cited from earlier work
[2] = tested on: patients with Alzheimer's Dementia (AD) and cortical vascular dementia (VaD); test: Clinical trial of oral fasudil on frequency of wandering (Example 1); type: in vivo, human
From the text: Twenty patients, 10 with AD and 10 with VaD (confirmed by […]) who are characterized wanderers, are enrolled into the study and observed for 2 weeks to confirm wandering behavior. […] The double-blind phase is followed by another treatment period of 6 weeks with the opposite treatment assignment (placebo or test drug taken with food).
• a. Walks distinctly more than average as others of same age and ability AND/OR • b. Elopement behavior≥3× per week in the opinion of the investigator Criteria for Entering First Double-Blind Treatment Period: Wanders: • a. Walks less than half the mean distance measured in observation period AND/OR • b. Elopement behavior<1× per week in the opinion of the investigator AND/OR • c. Wandering has improved in the opinion of the Investigator. 4. For entering observation period and for entering open label treatment period: • a. MMSE between 10 and 25.
Wandering is measured in term of time in motion and distance traveled (measures of persistent wandering), attempted and successful boundary transgressions (measures of elopement) and patterns like pacing a lapping (indicative of persistent wandering and/or agitation or anxiety) using an electronic tracking device. A typical tracking device would use a combination of accelerometry with positioning, using technology like RFID or Bluetooth in an indoor environment and GPS outdoors. Other wayfinding, orientation and memory-associated wandering incidents are observed and recorded manually.
The Mini Mental State Exam (MMSE), the Woolsey Wandering Questionnaire and the Revised Algase Wandering Scale are administered at baseline and at the end of each treatment period. Any change in the use of antipsychotics or anxiolytics that could affect movement during the study is strongly discouraged.

[3] = tested on: triple transgenic mouse model (APP Swedish, MAPT P301L, and PSEN1 M146V); conditions: 10 mg/kg/day intraperitoneally; cited from earlier work
streptozotocin rats = conditions: 5 and 10 mg/kg/day intraperitoneally; cited from earlier work
APP/PS1 transgenic mice = conditions: 5 and 10 mg/kg/day intraperitoneally; cited from earlier work
triple transgenic mice = conditions: 30 mg/kg and 100 mg/kg in water, 10 or 12 months of age; cited from earlier work
[4] = biological target: p38 mitogen-activated protein kinase (Homo sapiens, UniProt Q16539); conditions: cited from earlier work
Chain of p38 mitogen-activated protein kinase (Q16539 whole entry): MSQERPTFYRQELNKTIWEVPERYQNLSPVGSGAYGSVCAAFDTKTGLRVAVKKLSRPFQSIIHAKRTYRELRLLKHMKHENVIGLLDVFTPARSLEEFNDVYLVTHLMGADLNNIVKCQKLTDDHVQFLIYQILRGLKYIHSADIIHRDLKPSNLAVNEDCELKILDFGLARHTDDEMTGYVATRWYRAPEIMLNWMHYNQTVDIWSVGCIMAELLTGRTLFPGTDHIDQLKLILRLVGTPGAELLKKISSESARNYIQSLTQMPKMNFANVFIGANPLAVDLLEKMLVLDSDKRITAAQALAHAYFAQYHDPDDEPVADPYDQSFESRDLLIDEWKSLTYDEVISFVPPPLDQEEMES

[5] = 1-hydroxy (M3) metabolite; cited from earlier work

## O=S(=O)(c1cccc2cnccc12)N1CCCNCC1 [fasudil, Hexahydro-1-(5-isoquinolinesulfonyl)-1H-1,4-diazepine monohydrochloride hemihydrate]
[1]; patient with Binswanger-type cerebral infarction, within weeks of beginning treatment
  wandering symptoms: disappeared and remained absent for the duration of treatment
[1]; patient with sequelae of cerebral bleeding and multiple lacunar infarctions (lacunar dementia)
  wayfinding symptoms: disappeared quickly and remained absent for the duration of treatment
[2]; on drug, 90 mg/day
  measures of caregiver burden: significant effect
[2]; oral 90 mg/day (30 mg TID), 6 weeks, AD and cortical VaD wanderers
  reduction in wandering, at least one item of the RAWS and/or the WWQ: significant reduction
[2]; persistent wanderers, 90 mg/day
  mean increase in MMSE score: greater than 3 points
[2]; persistent wanderers, on drug as compared to placebo, 90 mg/day
  reduction of activity levels: about 50%
[2]; sporadic wanderers, while on drug
  wayfinding errors and other problematic behaviors: significant reduction
[3]
  ß-amyloid plaques in vivo: reduce ß-amyloid plaques
Streptozotocin rats
  latency distance and quadrant time in the Morris water maze: improved
APP/PS1 transgenic mice
  latency distance and quadrant time in the Morris water maze: improved
Triple transgenic mice
  spatial memory: did not observe improvements

## O=c1ncn2nc(Sc3ccc(F)cc3F)ccc2c1-c1c(Cl)cccc1Cl [Neflamapimod]
[4]; Phase 2
  primary endpoint of improving episodic memory: failed
  tau in the cerebrospinal fluid: reducing tau
[4]; humans
  Aβ deposition: no effect

## O=S(=O)(c1cccc2c(O)nccc12)N1CCCNCC1 [M3]
[5]
  half-life: about 8 hours
